Consider two compounds from patent US20240335406A1, “COMPOUNDED COMPOSITIONS AND METHODS FOR TREATING PAIN” (CMPD Licensing, LLC, priority 2016, published 2024).

Counter-ions that a name gives are not always drawn.

The series can be described thus: Potency test of the compounded topical solution of Example 1 (HPLC with UV/photodiode array detector). It counts as physicochemical. The note with it: for Measured: concentration of analyte in compounded topical solution of Example 1; for Potency: measured vs reported concentration, compounded topical solution of Example 1. The procedure: Diclofenac sodium topical solution, 1.5% (w/w), includes approximately 16.05 mg diclofenac sodium per mL. Accordingly, approximately 0.9167 mL of diclofenac sodium topical solution, 1.5% (w/w), was measured for every mL of compounded topical solution. […] The measured ingredients where combined in a beaker. The beaker was placed on a magnetic stirring plate and a stir bar was placed in the beaker and rotated at a speed to create a small vortex for 5 minutes. The stirred solution was then placed in containers.

Regarding `O=C(O)Cc1ccccc1Nc1c(Cl)cccc1Cl` [Diclofenac Sodium], the Measured was 1.51% and the Potency is recorded as 103%.
Take `CCN(CC)CC(=O)Nc1c(C)cccc1C` [Lidocaine HCl, Lidocaine Hydrochloride]: the Measured is listed as 0.336% and the Potency was determined as 101%.
